Measurements from patent publication US8367727B2, “Method of using abscisic acid to treat diseases and disorders” (priority 2006, dated 2013).

Assays:
[1] = target: T1, PPAR γ (Mus musculus, UniProt P37238); experiment: PPAR γ transactivation (luciferase reporter) in transfected 3T3-L1 pre-adipocytes; assay type: cell-based
T1 construct: expressed in transfected cells; host or cells: 3T3-L1 pre-adipocytes (ATCC)
T1 sequence (P37238 1-505): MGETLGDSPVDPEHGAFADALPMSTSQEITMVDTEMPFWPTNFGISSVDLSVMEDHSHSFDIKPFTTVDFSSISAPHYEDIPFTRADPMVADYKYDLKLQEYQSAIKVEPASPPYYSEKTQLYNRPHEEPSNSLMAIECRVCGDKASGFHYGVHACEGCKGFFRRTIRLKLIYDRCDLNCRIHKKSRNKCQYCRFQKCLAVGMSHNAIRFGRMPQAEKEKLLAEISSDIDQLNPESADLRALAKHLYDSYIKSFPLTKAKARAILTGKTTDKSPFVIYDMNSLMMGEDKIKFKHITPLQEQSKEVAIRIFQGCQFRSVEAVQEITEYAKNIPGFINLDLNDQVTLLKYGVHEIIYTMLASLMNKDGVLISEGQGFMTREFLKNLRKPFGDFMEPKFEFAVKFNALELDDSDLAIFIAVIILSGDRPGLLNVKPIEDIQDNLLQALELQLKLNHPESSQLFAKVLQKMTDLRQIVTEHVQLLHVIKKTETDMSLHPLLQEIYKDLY
Method: Transformation plasmid DNA was performed using One Shot TOP10 (Invitrogen, Carlsbad, Calif.). Briefly, […] of the ligation reaction were added to a thawed 50 μl vial of One Shot® cells for each reaction. The vials were then set on ice for 30 minutes, followed by 30 seconds incubation in a 42° C. water bath. Afterwards, 250 μl of pre-warmed S.O.C medium was added to each vial. Vials were then secured on their sides in a microcentrifuge rack and were placed in a Gyromax 727 orbital shaking incubator (Amerex Instruments, Lafayette, Calif.) and incubated at 37° C. at 225 rpm. After 1 hour incubation, 100 μl of each transformation vial was spread on separate, labeled LB agar plates (Sigma-Aldrich, Milwaukee, Wis.), inverted, and incubated at 37° C. overnight. Colonies were selected and isolated using Plasmid Maxi Kit (Qiagen, Valencia, Calif.) according to manufacturer's instructions. After isolation, the plasmids were transfected into 3T3-L1 pre-adipocytes (American Type Culture Collection, Manassas, Va.) using the Targefect-BAC transfection kit. (Targeting Systems, Santee, Calif.). Briefly, 3T3-L1 cells were cultured in complete DMEM high glucose media (Invitrogen) at 37° C. for 2 days until confluence. After digestion with 2 ml trypsin (Mediatech, Herndon, Va.), the cells were resuspended in 6 ml high glucose DMEM (Mediatech) and then aliquoted into a 24 well plate. […] On the day of the reading, the cells were washed with 500 μl PBS and lysed with 100 μl lysis reagent (Promega, Madison, Wis.). After 15 minutes, lysed cells were collected and luciferase activity for each concentration was calculated using the Dual-Luciferase reporter assay system (Promega) and TD-20/20 Single-Tube Luminometer (Turner Biosystems, Sunnyvale, Calif.) according to manufacturers' instructions. Relative luciferase activity (RLA) was calculated as a ratio of the chemiluminescence 10 seconds after the Luciferase Assay Reagent II (Promega) was added over the chemiluminescence 10 seconds after the Stop&Glo Reagent (Promega). […]

[2] = test system: MCP-1, PPAR γ, CD36; experiment: Real-time qRT-PCR of stromal-vascular cells (SVCs), adipocytes and liver, db/db mice; assay type: in vivo
Source text: Complementary DNA (cDNA) concentrations for genes of interest were examined by real-time quantitative PCR using an iCycler IQ System and the iQ SYBR green supermix (BioRad). A standard curve was generated for each gene using 10-fold dilutions of purified amplicons starting at 5 pg of cDNA and used later to calculate the starting amount of target cDNA in the unknown samples. SYBR green I is a general double-stranded DNA intercalating dye and may therefore detect nonspecific products and primer/dimers in addition to the amplicon of interest. In order to determine the number of products synthesized during the real-time PCR, a melting curve analysis was performed on each product. Real-time PCR was used to measure the starting amount of nucleic acid of each unknown sample of cDNA on the same 96-well plate. Results are presented as starting quantity of target cDNA (picograms) per microgram of total RNA.

CC1=CC(=O)CC(C)(C)C1(O)/C=C/C(C)=C\C(=O)O (racemic) [ABA, abscisic acid]
PPAR γ activity at 50 μM versus 10 μM ([1]; 50 μM ABA): No additional increase in PPAR γ activity | potency relative to rosiglitazone (times less potent) ([1]; in vitro, 3T3-L1): 10 fold | ABA concentration at which relative luciferase activity begins to be significantly increased ([1]; racemic ABA 1, 2.5, 5, 10, 50 μM, 24 hours): 10 µM | MCP-1 mRNA in the adipocyte fraction ([2]; P=0.05): significant reduction | CD36 expression ([2]; SVCs and adipocytes): only significantly elevated in SVCs | PPAR γ mRNA expression ([2]; SVCs and adipocytes): higher in both SVCs and adipocytes | mRNA expression of MIP-1α or TLR-4 ([2]; SVCs or adipocytes): did not see significant differences | decrease of MCP-1 mRNA in SVCs ([2]; db/db mice, 100 mg/kg diet, 36 days): ~15 fold
